Like-named read-outs stand apart in the source and are kept apart here. *1 amine or outer side, *2 acyl side, *3 side chain or, on linkers, in order; H or OH if unused. Where a SMILES comes first, the peptide text is derived from it. Side-chain parts run from the residue outwards. [ ]: non-standard residue; d: D form. The star is where a group is joined. Isobutyryl(2-(3-CN-5-F-Ph)) = CC(C)(C(=O)*)c1cc(F)cc(C#N)c1; C20 diacid = O=C(O)CCCCCCCCCCCCCCCCCCC(=O)*; Phenylacetyl(3-Cl) = O=C(Cc1cccc(Cl)c1)*; γGlu = O=C(O)[C@H](CCC(=O)[*:2])N[*:1]; X5 = O=C(C1(c2ccc(F)cc2F)CCCC1)*; X72 = CC(C)(C(=O)*)c1cccc(Cl)c1F; X33 = CCC(CC)(C(=O)*)c1ccccc1; β3hA = C[C@H](N)CC(=O)O; AEEA = NCCOCCOCC(=O)O; Aib = CC(C)(N)C(=O)O; GABA = NCCCC(=O)O; βAla = NCCC(=O)O
What was measured:
Type in all cases: cell-based
GLP-1 receptor [1] = molecular target: T1, GLP-1 receptor (Homo sapiens, UniProt P43220); assay: PathHunter β-arrestin assay, GLP-1 receptor; parameters: host or cells: PathHunter CHO-K1 GLP1R β-Arrestin Cell Line
T1 sequence (P43220 24-463): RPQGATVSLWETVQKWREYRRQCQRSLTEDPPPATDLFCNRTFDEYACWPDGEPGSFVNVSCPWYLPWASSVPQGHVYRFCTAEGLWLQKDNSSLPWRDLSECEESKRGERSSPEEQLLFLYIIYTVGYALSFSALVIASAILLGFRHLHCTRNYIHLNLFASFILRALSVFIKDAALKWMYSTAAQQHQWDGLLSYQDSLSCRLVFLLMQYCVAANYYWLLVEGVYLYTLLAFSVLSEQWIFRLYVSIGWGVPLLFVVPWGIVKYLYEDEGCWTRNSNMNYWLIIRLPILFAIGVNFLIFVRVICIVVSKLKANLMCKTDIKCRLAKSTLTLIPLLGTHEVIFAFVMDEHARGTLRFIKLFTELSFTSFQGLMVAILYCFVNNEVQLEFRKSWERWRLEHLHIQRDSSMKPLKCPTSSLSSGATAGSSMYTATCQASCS
Procedure: β-arrestin-2 recruitment for GLP-1 receptor or GIP receptor was measured using the DiscoverX PathHunter Detection Kit and PathHunter® CHO-K1 GLPIR β-Arrestin Cell Line or PathHunter® CHO-K1 GIPR β-Arrestin Cell Line, respectively). Briefly, cells were grown in Ham's F12 Nutrient Mix with 10% FBS and lifted with Cell dissociation buffer, Enzyme free, PBS based (ThermoFisher). Harvested cells were pelleted and resuspended in Assay Complete Cell Plating Reagent 2 and 5000 cells per well were plated in tissue culture treated 384-well small volume white assay plates. Plates were then incubated at 37° C. and 5% CO2 overnight. The media was then replaced with fresh Assay Complete Cell Plating Reagent 2. Cells were then treated with 10 nl compound in DMSO using an ECHO 550 acoustic dispenser (Labcyte) in a 20-point dose response format in duplicate for 90 min at 37° C. The assay was then completed according to the manufacturer's instructions. Luminescence was measured using a Perkin Elmer Envision plate reader. Raw data was normalized to the maximum signal from GLP-1 or GIP (high) and DMSO (low). Dose response curves were analyzed using GraphPad Prism 9.0.

GLP-1 receptor [2] = molecular target: T1, GLP-1 receptor; assay: HitHunter cAMP assay, GLP-1 receptor; details: for Emax: read-out: Emax GLP-1R
GIP receptor [3] = molecular target: T2, GIP receptor (Homo sapiens, UniProt P48546); assay: PathHunter β-arrestin assay, GIP receptor; parameters: host or cells: PathHunter CHO-K1 GIPR β-Arrestin Cell Line
T2 sequence (P48546 22-466): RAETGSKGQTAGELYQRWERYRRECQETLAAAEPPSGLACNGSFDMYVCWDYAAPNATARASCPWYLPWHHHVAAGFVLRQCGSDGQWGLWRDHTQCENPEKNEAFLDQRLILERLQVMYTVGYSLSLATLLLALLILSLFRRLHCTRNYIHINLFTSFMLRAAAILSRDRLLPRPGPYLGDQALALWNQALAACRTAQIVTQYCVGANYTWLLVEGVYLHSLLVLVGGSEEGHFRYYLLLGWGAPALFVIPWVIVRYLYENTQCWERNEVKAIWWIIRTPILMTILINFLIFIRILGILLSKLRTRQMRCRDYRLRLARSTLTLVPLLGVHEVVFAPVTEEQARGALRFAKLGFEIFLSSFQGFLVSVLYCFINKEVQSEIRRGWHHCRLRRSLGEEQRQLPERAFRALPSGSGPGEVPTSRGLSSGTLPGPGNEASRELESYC

GIP receptor [4] = molecular target: T2, GIP receptor; assay: HitHunter cAMP assay, GIP receptor; details: for Emax: read-out: Emax GIP-1R
[5] = β-arrestin-2 recruitment, PathHunter CHO-K1 GLP1R β-Arrestin Cell Line, 90 min at 37° C., normalized to GLP-1, read-out: GLP-1R β Arrestin EC50
[6] = CHO cells stably expressing human GLP-1 receptor, cAMP accumulation, 30 min, read-out: EC50 GLP-1R
[7] = CHO cells, cAMP, normalized to maximum signal from GLP-1 (high) and DMSO (low)
[8] = β-arrestin-2 recruitment, PathHunter CHO-K1 GIPR β-Arrestin Cell Line, 90 min at 37° C., normalized to GIP, read-out: GIPR β Arrestin EC50
[9] = CHO cells stably expressing GIP receptor, cAMP accumulation, 30 min, read-out: EC50 GIP-1R
[10] = CHO cells, cAMP, normalized to maximum signal from GIP (high) and DMSO (low)

| Compound | EC50 (GLP-1 receptor [1]; [5]) [nM] | EC50 (GLP-1 receptor [2]; [6]) [nM] | Emax (GLP-1 receptor [2]; [7]) [%] | EC50 (GIP receptor [3]; [8]) [nM] | EC50 (GIP receptor [4]; [9]) [nM] | Emax (GIP receptor [4]; [10]) [%] | EC50 (GLP-1 receptor [1]) [nM] | EC50 (GLP-1 receptor [2]) [nM] | Emax (GLP-1 receptor [2]; CHO) [%] | EC50 (GIP receptor [3]) [nM] | EC50 (GIP receptor [4]) [nM] | Emax (GIP receptor [4]; CHO) [%] |
| --- | --- | --- | --- | --- | --- | --- | --- | --- | --- | --- | --- | --- |
| CC[C@H](C)[C@H](NC(=O)[C@H](CC(C)C)NC(=O)[C@H](Cc1c[nH]c2ccccc12)NC(=O)[C@H](CCC(N)=O)NC(=O)[C@@H](NC(=O)[C@H](Cc1ccccc1)NC(=O)[C@H](C)NC(=O)[C@H](CCCCNC(=O)COCCOCCNC(=O)COCCOCCNC(=O)CC[C@H](NC(=O)CCCCCCCCCCCCCCCCCCC(=O)O)C(=O)O)NC(=O)[C@H](CCC(N)=O)NC(=O)[C@H](C)NC(=O)[C@@H](NC(=O)[C@H](CCCCN)NC(=O)[C@H](CC(=O)O)NC(=O)[C@H](CC(C)C)NC(=O)C(C)(C)NC(=O)[C@@H](NC(=O)[C@H](CO)NC(=O)[C@H](Cc1ccc(O)cc1)NC(=O)[C@H](CC(=O)O)NC(=O)[C@H](CO)NC(=O)[C@@H](NC(=O)[C@H](Cc1ccccc1)NC(=O)[C@@H](NC(=O)CNC(=O)[C@H](CCC(=O)O)NC(=O)CCNC(=O)C(CC)(CC)c1ccccc1)[C@@H](C)O)[C@@H](C)O)[C@@H](C)CC)[C@@H](C)CC)C(C)C)C(=O)N[C@@H](C)C(=O)NCC(=O)NCC(=O)N1CCC[C@H]1C(=O)N[C@@H](CO)C(=O)N[C@@H](CO)C(=O)NCC(=O)N[C@@H](C)C(=O)N1CCC[C@H]1C(=O)N1CCC[C@H]1C(=O)N1CCC[C@H]1C(=O)N[C@@H](CO)C(N)=O [Compound 218] ({X33-βAla}-EGTFTSDYSI[Aib]LDKIAQK([AEEA-AEEA-γGlu-C20 diacid])AFVQWLIAGGPSSGAPPPS-NH2) | > 1000 | 0.1 to 1 | 103 | < 1000 | 0.1 to 1 | 100 | – | – | – | – | – | – |
| CC[C@H](C)[C@H](NC(=O)[C@H](CC(C)C)NC(=O)[C@H](Cc1c[nH]c2ccccc12)NC(=O)[C@H](CCC(N)=O)NC(=O)[C@@H](NC(=O)[C@H](Cc1ccccc1)NC(=O)[C@H](C)NC(=O)[C@H](CCCCNC(=O)COCCOCCNC(=O)COCCOCCNC(=O)CC[C@H](NC(=O)CCCCCCCCCCCCCCCCCCC(=O)O)C(=O)O)NC(=O)[C@H](CCC(N)=O)NC(=O)[C@H](C)NC(=O)[C@@H](NC(=O)[C@H](CCCCN)NC(=O)[C@H](CC(=O)O)NC(=O)[C@H](CC(C)C)NC(=O)C(C)(C)NC(=O)[C@@H](NC(=O)[C@H](CO)NC(=O)[C@H](Cc1ccc(O)cc1)NC(=O)[C@H](CC(=O)O)NC(=O)[C@H](CO)NC(=O)[C@@H](NC(=O)[C@H](Cc1ccccc1)NC(=O)[C@@H](NC(=O)CNC(=O)[C@H](CCC(=O)O)NC(=O)CCNC(=O)C(C)(C)c1cccc(Cl)c1F)[C@@H](C)O)[C@@H](C)O)[C@@H](C)CC)[C@@H](C)CC)C(C)C)C(=O)N[C@@H](C)C(=O)NCC(=O)NCC(=O)N1CCC[C@H]1C(=O)N[C@@H](CO)C(=O)N[C@@H](CO)C(=O)NCC(=O)N[C@@H](C)C(=O)N1CCC[C@H]1C(=O)N1CCC[C@H]1C(=O)N1CCC[C@H]1C(=O)N[C@@H](CO)C(N)=O [Compound 219] ({X72-βAla}-EGTFTSDYSI[Aib]LDKIAQK([AEEA-AEEA-γGlu-C20 diacid])AFVQWLIAGGPSSGAPPPS-NH2) | > 1000 | < 0.1 | 104 | < 1000 | 0.1 to 1 | 106 | – | – | – | – | – | – |
| CC[C@H](C)[C@H](NC(=O)[C@H](CC(C)C)NC(=O)[C@H](Cc1c[nH]c2ccccc12)NC(=O)[C@H](CCC(N)=O)NC(=O)[C@@H](NC(=O)[C@H](Cc1ccccc1)NC(=O)[C@H](C)NC(=O)[C@H](CCCCNC(=O)COCCOCCNC(=O)COCCOCCNC(=O)CC[C@H](NC(=O)CCCCCCCCCCCCCCCCCCC(=O)O)C(=O)O)NC(=O)[C@H](CCC(N)=O)NC(=O)[C@H](C)NC(=O)[C@@H](NC(=O)[C@H](CCCCN)NC(=O)[C@H](CC(=O)O)NC(=O)[C@H](CC(C)C)NC(=O)C(C)(C)NC(=O)[C@@H](NC(=O)[C@H](CO)NC(=O)[C@H](Cc1ccc(O)cc1)NC(=O)[C@H](CC(=O)O)NC(=O)[C@H](CO)NC(=O)[C@@H](NC(=O)[C@H](Cc1ccccc1)NC(=O)[C@@H](NC(=O)CNC(=O)[C@H](CCC(=O)O)NC(=O)CCNC(=O)C1(c2ccc(F)cc2F)CCCC1)[C@@H](C)O)[C@@H](C)O)[C@@H](C)CC)[C@@H](C)CC)C(C)C)C(=O)N[C@@H](C)C(=O)NCC(=O)NCC(=O)N1CCC[C@H]1C(=O)N[C@@H](CO)C(=O)N[C@@H](CO)C(=O)NCC(=O)N[C@@H](C)C(=O)N1CCC[C@H]1C(=O)N1CCC[C@H]1C(=O)N1CCC[C@H]1C(=O)N[C@@H](CO)C(N)=O [Compound 220] ({X5-βAla}-EGTFTSDYSI[Aib]LDKIAQK([AEEA-AEEA-γGlu-C20 diacid])AFVQWLIAGGPSSGAPPPS-NH2) | > 1000 | 0.1 to 1 | 102 | < 1000 | 0.1 to 1 | 108 | – | – | – | – | – | – |
| CC[C@H](C)[C@H](NC(=O)[C@H](CC(C)C)NC(=O)[C@H](Cc1c[nH]c2ccccc12)NC(=O)[C@H](CCC(N)=O)NC(=O)[C@@H](NC(=O)[C@H](Cc1ccccc1)NC(=O)[C@H](C)NC(=O)[C@H](CCCCNC(=O)COCCOCCNC(=O)COCCOCCNC(=O)CC[C@H](NC(=O)CCCCCCCCCCCCCCCCCCC(=O)O)C(=O)O)NC(=O)[C@H](CCC(N)=O)NC(=O)[C@H](C)NC(=O)[C@@H](NC(=O)[C@H](CCCCN)NC(=O)[C@H](CC(=O)O)NC(=O)[C@H](CC(C)C)NC(=O)C(C)(C)NC(=O)[C@@H](NC(=O)[C@H](CO)NC(=O)[C@H](Cc1ccc(O)cc1)NC(=O)[C@H](CC(=O)O)NC(=O)[C@H](CO)NC(=O)[C@@H](NC(=O)[C@H](Cc1ccccc1)NC(=O)[C@@H](NC(=O)CNC(=O)[C@H](CCC(=O)O)NC(=O)CCCNC(=O)CNC(=O)Cc1cccc(Cl)c1)[C@@H](C)O)[C@@H](C)O)[C@@H](C)CC)[C@@H](C)CC)C(C)C)C(=O)N[C@@H](C)C(=O)NCC(=O)NCC(=O)N1CCC[C@H]1C(=O)N[C@@H](CO)C(=O)N[C@@H](CO)C(=O)NCC(=O)N[C@@H](C)C(=O)N1CCC[C@H]1C(=O)N1CCC[C@H]1C(=O)N1CCC[C@H]1C(=O)N[C@@H](CO)C(N)=O [Compound 221] ({Phenylacetyl(3-Cl)}-G[GABA]EGTFTSDYSI[Aib]LDKIAQK([AEEA-AEEA-γGlu-C20 diacid])AFVQWLIAGGPSSGAPPPS-NH2) | – | – | – | – | – | – | > 1000 | 10 to 100 | 95 | > 1000 | 10 to 100 | 95 |
| CC[C@H](C)[C@H](NC(=O)[C@H](CC(C)C)NC(=O)[C@H](Cc1c[nH]c2ccccc12)NC(=O)[C@H](CCC(N)=O)NC(=O)[C@@H](NC(=O)[C@H](Cc1ccccc1)NC(=O)[C@H](C)NC(=O)[C@H](CCCCNC(=O)COCCOCCNC(=O)COCCOCCNC(=O)CC[C@H](NC(=O)CCCCCCCCCCCCCCCCCCC(=O)O)C(=O)O)NC(=O)[C@H](CCC(N)=O)NC(=O)[C@H](C)NC(=O)[C@@H](NC(=O)[C@H](CCCCN)NC(=O)[C@H](CC(=O)O)NC(=O)[C@H](CC(C)C)NC(=O)C(C)(C)NC(=O)[C@@H](NC(=O)[C@H](CO)NC(=O)[C@H](Cc1ccc(O)cc1)NC(=O)[C@H](CC(=O)O)NC(=O)[C@H](CO)NC(=O)[C@@H](NC(=O)[C@H](Cc1ccccc1)NC(=O)[C@@H](NC(=O)CNC(=O)[C@H](CCC(=O)O)NC(=O)C[C@H](C)NC(=O)C(C)(C)c1cc(F)cc(C#N)c1)[C@@H](C)O)[C@@H](C)O)[C@@H](C)CC)[C@@H](C)CC)C(C)C)C(=O)N[C@@H](C)C(=O)NCC(=O)NCC(=O)N1CCC[C@H]1C(=O)N[C@@H](CO)C(=O)N[C@@H](CO)C(=O)NCC(=O)N[C@@H](C)C(=O)N1CCC[C@H]1C(=O)N1CCC[C@H]1C(=O)N1CCC[C@H]1C(=O)N[C@@H](CO)C(N)=O [Compound 222] ({Isobutyryl(2-(3-CN-5-F-Ph))}-[β3hA]EGTFTSDYSI[Aib]LDKIAQK([AEEA-AEEA-γGlu-C20 diacid])AFVQWLIAGGPSSGAPPPS-NH2) | > 1000 | 0.1 to 1 | 108 | > 1000 | 10 to 100 | 101 | – | – | – | – | – | – |

— patent publication US12281149B2, “Modulators of G-protein coupled receptors” (priority 2021, dated 2025)
